Data taken from the supplement of paper PMC10307832.

Experiments:
Assay in all cases: relative viability (nuclei count vs DMSO), 5 days (fraction); higher = more cells survive
[1] = compound: CCN1C(=O)C2=CC(=C(N=C2N(C1=O)C3CC3)N)C(=O)N
Procedure, shortened: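 Five library-drug doses spaced by √10 were pinned onto vehicle-anchored 1536-well plates of lung cancer cell lines that had been kept overnight at 37 °C. Cells went 5 days without medium change, then were fixed, permeabilised and Hoechst-stained together, imaged at 4× and counted by MetaXpress. Viability is the ratio of treated-well to vehicle-well nuclei, taken as a median over plates. Plates required control CV below 25% and at least one doubling.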

[2] = compound: CCN1C(=O)C2=CC(=C(N=C2N(C1=O)C3CC3)N)C(=O)N + O=C(CCCCCCC(=O)Nc1ccccc1)NO [Vorinostat] (partner 1 µM)
Procedure, shortened: (§1)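 Lung cancer cell lines were seeded in 1536-well plates and dosed by pin tool the next day, with either a single drug or a fixed anchor-drug dose combined with five library-drug doses (not always all listed) spaced in √10 steps. Five days later, one step fixed the cells and stained their nuclei (final 0.05% Triton X-100, 1% formaldehyde, 1 ug/ml Hoechst), and nuclei were counted on 4× images. Relative viability is the nuclei count in treated wells divided by the count in vehicle wells, and each value is the median of duplicate plates.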

[3] = compound: CCN1C(=O)C2=CC(=C(N=C2N(C1=O)C3CC3)N)C(=O)N + Nc1nc2[nH]cc(CCc3ccc(C(=O)N[C@@H](CCC(=O)O)C(=O)O)cc3)c2c(=O)[nH]1 [Pemetrexed] (partner 0.2 µM)
Procedure, shortened: as §1

[4] = compound: CCN1C(=O)C2=CC(=C(N=C2N(C1=O)C3CC3)N)C(=O)N + O=C(c1cc(Cc2n[nH]c(=O)c3ccccc23)ccc1F)N1CCN(C(=O)C2CC2)CC1 [Olaparib] (partner 8 µM)
Procedure, shortened: as §1

[5] = compound: CCN1C(=O)C2=CC(=C(N=C2N(C1=O)C3CC3)N)C(=O)N + Cc1cc(Nc2cc(N3CCN(C)CC3)nc(Sc3ccc(NC(=O)C4CC4)cc3)n2)n[nH]1 [Tozasertib] (partner 0.1 µM)
Procedure, shortened: as §1

[6] = compound: CCN1C(=O)C2=CC(=C(N=C2N(C1=O)C3CC3)N)C(=O)N + Nc1ncn([C@H]2C[C@H](O)[C@@H](CO)O2)c(=O)n1 [Decitabine] (partner 2 µM)
Procedure, shortened: as §1

[7] = compound: CCN1C(=O)C2=CC(=C(N=C2N(C1=O)C3CC3)N)C(=O)N + CC(=O)Nc1cccc(-n2c(=O)n(C3CC3)c(=O)c3c(Nc4ccc(I)cc4F)n(C)c(=O)c(C)c32)c1 [Trametinib] (partner 0.02 µM)
Procedure, shortened: as §1

[8] = compound: CCN1C(=O)C2=CC(=C(N=C2N(C1=O)C3CC3)N)C(=O)N + CC(=O)c1c(C)c2cnc(Nc3ccc(N4CCNCC4)cn3)nc2n(C2CCCC2)c1=O [Palbociclib] (partner 0.5 µM)
Procedure, shortened: as §1

[9] = compound: CCN1C(=O)C2=CC(=C(N=C2N(C1=O)C3CC3)N)C(=O)N + NC(=O)Nc1cc(-c2cccc(F)c2)sc1C(=O)N[C@H]1CCCNC1 [AZD7762] (partner 0.2 µM)
Procedure, shortened: as §1

[10] = compound: CCN1C(=O)C2=CC(=C(N=C2N(C1=O)C3CC3)N)C(=O)N + COc1cccc2cc(-c3nc([C@H]4CC[C@H](C(=O)O)CC4)n4ncnc(N)c34)[nH]c12 [OSI-027] (partner 0.5 µM)
Procedure, shortened: as §1

[11] = compound: CCN1C(=O)C2=CC(=C(N=C2N(C1=O)C3CC3)N)C(=O)N + CC(C)C[C@H](NC(=O)[C@H](Cc1ccccc1)NC(=O)c1cnccn1)B(O)O [Bortezomib] (partner 0.002 µM)
Procedure, shortened: as §1

[12] = compound: CCN1C(=O)C2=CC(=C(N=C2N(C1=O)C3CC3)N)C(=O)N + CS(=O)(=O)N1CCN(Cc2cc3nc(-c4cccc5[nH]ncc45)nc(N4CCOCC4)c3s2)CC1 [Pictilisib] (partner 1 µM)
Procedure, shortened: as §1

[13] = compound: CCN1C(=O)C2=CC(=C(N=C2N(C1=O)C3CC3)N)C(=O)N + CC1(C)CCC(c2ccc(Cl)cc2)=C(CN2CCN(c3ccc(C(=O)NS(=O)(=O)c4ccc(N[C@H](CCN5CCOCC5)CSc5ccccc5)c(S(=O)(=O)C(F)(F)F)c4)cc3)CC2)C1 [Navitoclax] (partner 0.5 µM)
Procedure, shortened: as §1

[14] = compound: CCN1C(=O)C2=CC(=C(N=C2N(C1=O)C3CC3)N)C(=O)N + COc1cc2c(Oc3ccc(NC(=O)C4(C(=O)Nc5ccc(F)cc5)CC4)cc3F)ccnc2cc1OCCCN1CCOCC1 [Foretinib] (partner 0.25 µM)
Procedure, shortened: as §1

[15] = compound: CCN1C(=O)C2=CC(=C(N=C2N(C1=O)C3CC3)N)C(=O)N + CS(=O)(=O)CCNCc1ccc(-c2ccc3ncnc(Nc4ccc(OCc5cccc(F)c5)c(Cl)c4)c3c2)o1 [Lapatinib] (partner 2 µM)
Procedure, shortened: as §1

[16] = compound: CCN1C(=O)C2=CC(=C(N=C2N(C1=O)C3CC3)N)C(=O)N + C[C@@H](Oc1cc(-c2cnn(C3CCNCC3)c2)cnc1N)c1c(Cl)ccc(F)c1Cl [Crizotinib] (partner 1 µM)
Procedure, shortened: as §1

[17] = compound: CCN1C(=O)C2=CC(=C(N=C2N(C1=O)C3CC3)N)C(=O)N + C[C@]1(O)C[C@@H](c2nc(-c3ccc4ccc(-c5ccccc5)nc4c3)c3c(N)nccn32)C1 [Linsitinib] (partner 1 µM)
Procedure, shortened: as §1

[18] = compound: CCN1C(=O)C2=CC(=C(N=C2N(C1=O)C3CC3)N)C(=O)N + Cc1nc(NC(=O)N2CCC[C@H]2C(N)=O)sc1-c1ccnc(C(C)(C)C(F)(F)F)c1 [Alpelisib] (partner 2 µM)
Procedure, shortened: as §1

In the case of NCI-H1648, the relative viability ([1]; 0.253 µM) is reported as 0.835, the relative viability ([1]; 0.8 µM) is reported as 0.932 and the relative viability ([1]; 2.53 µM) is reported as 0.89. The relative viability ([1]; 8 µM) was 0.851, the relative viability ([2]; first compound 0.253 µM) was 0.488 and the relative viability ([2]; first compound 2.53 µM) was 0.219. For the same cell line, the relative viability ([2]; first compound 8 µM) was 0.9, the relative viability ([3]; first compound 0.253 µM) was 0.735 and the relative viability ([3]; first compound 2.53 µM) was 0.64. For the same cell line, the relative viability ([3]; first compound 8 µM) was 0.585, the relative viability ([4]; first compound 0.253 µM) was 0.914 and the relative viability ([4]; first compound 2.53 µM) was 1.07. The relative viability ([4]; first compound 8 µM) was 0.883, the relative viability ([5]; first compound 0.253 µM) was 0.416 and the relative viability ([5]; first compound 0.8 µM) was 0.526. For the same cell line, the relative viability ([5]; first compound 2.53 µM) was 0.423, the relative viability ([5]; first compound 8 µM) was 0.53 and the relative viability ([6]; first compound 0.253 µM) was 0.394. For the same cell line, the relative viability ([6]; first compound 2.53 µM) was 0.429, the relative viability ([6]; first compound 8 µM) was 0.445 and the relative viability ([7]; first compound 0.253 µM) was 0.45. For the same cell line, the relative viability ([7]; first compound 2.53 µM) was 0.245, the relative viability ([7]; first compound 8 µM) was 0.386 and the relative viability ([8]; first compound 0.253 µM) was 0.301. The relative viability ([8]; first compound 2.53 µM) was 0.243, the relative viability ([8]; first compound 8 µM) was 0.273 and the relative viability ([9]; first compound 0.253 µM) was 0.706. For the same cell line, the relative viability ([9]; first compound 2.53 µM) was 0.646, the relative viability ([9]; first compound 8 µM) was 0.568 and the relative viability ([10]; first compound 0.253 µM) was 0.265. It also gave a relative viability ([10]; first compound 0.8 µM) of 0.271, a relative viability ([10]; first compound 2.53 µM) of 0.259 and a relative viability ([10]; first compound 8 µM) of 0.278.

Cell Line Calu-6 has a relative viability ([1]; 0.253 µM) of 0.963, a relative viability ([1]; 0.8 µM) of 1.01 and a relative viability ([1]; 2.53 µM) of 0.902. It also gave a relative viability ([1]; 8 µM) of 0.905, a relative viability ([11]; first compound 0.253 µM) of 1 and a relative viability ([11]; first compound 0.8 µM) of 0.954. For the same cell line, the relative viability ([11]; first compound 2.53 µM) was 1.02, the relative viability ([11]; first compound 8 µM) was 0.958 and the relative viability ([12]; first compound 0.253 µM) was 0.925. It also gave a relative viability ([12]; first compound 0.8 µM) of 0.819, a relative viability ([12]; first compound 2.53 µM) of 0.923 and a relative viability ([12]; first compound 8 µM) of 1. For the same cell line, the relative viability ([13]; first compound 0.253 µM) was 0.828, the relative viability ([13]; first compound 0.8 µM) was 0.822 and the relative viability ([13]; first compound 2.53 µM) was 0.826. It also gave a relative viability ([13]; first compound 8 µM) of 0.883, a relative viability ([14]; first compound 0.253 µM) of 0.892 and a relative viability ([14]; first compound 0.8 µM) of 0.809. The relative viability ([14]; first compound 2.53 µM) was 0.845, the relative viability ([14]; first compound 8 µM) was 0.803 and the relative viability ([4]; first compound 0.253 µM) was 0.554. The relative viability ([4]; first compound 0.8 µM) was 0.573, the relative viability ([4]; first compound 2.53 µM) was 0.582 and the relative viability ([4]; first compound 8 µM) was 0.566. It also gave a relative viability ([15]; first compound 0.253 µM) of 1.06, a relative viability ([15]; first compound 0.8 µM) of 1.05 and a relative viability ([15]; first compound 2.53 µM) of 0.957. The relative viability ([15]; first compound 8 µM) was 0.997, the relative viability ([16]; first compound 0.253 µM) was 0.808 and the relative viability ([16]; first compound 0.8 µM) was 0.81. It also gave a relative viability ([16]; first compound 2.53 µM) of 0.721, a relative viability ([16]; first compound 8 µM) of 0.805 and a relative viability ([17]; first compound 0.253 µM) of 0.924. It also gave a relative viability ([17]; first compound 0.8 µM) of 0.946, a relative viability ([17]; first compound 2.53 µM) of 0.869 and a relative viability ([17]; first compound 8 µM) of 0.866. It also gave a relative viability ([18]; first compound 0.253 µM) of 1.03, a relative viability ([18]; first compound 0.8 µM) of 0.876 and a relative viability ([18]; first compound 2.53 µM) of 0.866. It also gave a relative viability ([18]; first compound 8 µM) of 0.925.
